In article PMC8886574, “Synthesis, physicochemical characterization and neuroprotective evaluation of novel 1-hydroxypyrazin-2(1H)-one iron chelators in an in vitro cell model of Parkinson's disease” (Dalton Transactions (Cambridge, England : 2003), 2022):
Where two headings read alike, the source gives them in different places.

Columns and labels:
[1] = test system: SH-SY5Y neuroblastoma cells; test: Neuroprotection against 6-OHDA insult, MTT cell viability assay; type: cell-based, Human; settings: for % 6-OHDA Rescue (at 100 µM): 100 µM dose of the compound; for neuroprotection against 6-OHDA (in words): 0–300 μM, pre-incubation 1 hour, 6-OHDA 24 hours; for cell viability restored: human, 24 h
Method: We next evaluated the neuroprotective ability of these compounds when cells are exposed to 6-hydroxydopamine (6-OHDA), a neurotoxin that emulates various pathological aspects of PD in dopaminergic neurons, in both in vitro and in vivo disease models, including mitochondrial impairment and cell death.[26c,28,46] […] Cells were pre-treated with the compound of interest at different concentrations for 1 hour prior to treatment with 6-OHDA ([…]) for a further 24 hours.
Human SH-SY5Y neuroblastoma cells (ATCC® CRL-2266™) were plated at 20 000 cells per well in 96-well microplates, and left to adhere overnight to the well surface, in cell culture media composed of 50% advanced minimum essential medium (MEM), 50% Ham's F12 medium, 1% L-glutamine, that was supplemented with 2% fetal bovine serum (FBS). All media components were obtained from Thermo Fisher Scientific (Gibco™).
Each well's media was then replaced with 100 μL per well of serum free media, containing ascending concentrations of the novel compounds that ranged from 0–300 μM. Cells were pre-incubated with the compounds for 1 hour at 37 °C, 5% CO2, before exposure to 50 μM 6-OHDA (apart from the wells containing non-toxin treated control cells) for a further 24 hours. Just before application to cells, a 10 mM 6-OHDA hydrochloride (Sigma-Aldrich) stock concentration was prepared, by dissolving the powder in 1 mL distilled water containing 0.1% ascorbic acid (Sigma-Aldrich); the solution was protected against light and kept on ice until use.
After a further 24 hours incubation period at 37 °C in a 5% CO2 environment, cell viability was measured using the tetrazolium dye, 3-(4,5-dimethylthiazol-2-yl)-2,5-diphenyltetrazolium bromide (MTT). For this colorimetric assay, 11 μL of MTT (5 mg mL^−1) was added to the 100 μL media per well, and then incubated for 3 hours at 37 °C, 5%, CO2. For lysing the cells, an equal volume of solubilizing solution (dimethyl sulfoxide (DMSO)) was added to each well and mixed thoroughly. Absorption was measured at a wavelength of 570 nm by using a scanning multiwell spectrophotometer (Sunrise Tecan, Durham, NC, USA). Cell viability was calculated as a percentage compared to the untreated (not receiving toxin or drug compound) control wells. Data is expressed as the means ± the SEM of three independent experiments. Statistical analyses of the MTT-derived cell viability data were performed using Prism software (v3, GraphPad, San Diego, CA, USA) and using a one-way ANOVA, followed by a Dunnett's post-hoc test for multiple comparisons. Results were considered significant at P < 0.05.

[2] = Trolox equivalent antioxidant capacity (TEAC) assay, ABTS radical cation decolorization; type: biochemical; settings: for time to complete reaction with ABTS radical cation: TEAC assay
From the text: 2,2′-Azinobis-(3-ethylbenzothiazoline)-6-sulfonic acid radical cation (ABTS˙^+) is a blue/green chromophore that absorbs at 745 nm and was produced through the reaction between ABTS and potassium persulfate. Addition of antioxidants to the radical cation reduces it to the non-absorbing ABTS to an extent and on a time-scale depending on its antioxidant activity, the concentration of the antioxidant and the duration of the reaction. […] The TEAC value for a given ligand at a given time point was obtained by dividing the corresponding slope of the ligand by the slope of Trolox (Table 3 and Fig. S21 ^†).
TEAC values were calculated according to an ABTS radical cation decolorization assay. 2,2′-Azinobis-(3-ethylbenzothiazoline-6-sulphonic acid diammonium salt (ABTS, 7 mM) was dissolved in water (10 mL) and exposed to potassium persulphate (2.45 mM). After a 16-hour incubation period (dark, room temperature), the resulting solution was diluted with HPLC-grade methanol such that the absorbance of the solution at 745 nm was around 0.7. ABTS˙^+ solution (2 mL) was loaded into a cuvette and the absorbance was recorded at 745 nm. 50 μL of various concentrations of the given ligand solution were then added, the cuvette was vigorously shaken and the absorbance was measured after 1, 3 and 6 minutes. Data were plotted such that for each time point a linear system of percentage of inhibition of ABTS˙^+versus concentration of ligand was obtained. The slope of each plot was normalised with respect to that of Trolox to give the Trolox equivalence value for each time point.

[3] = Solubility as observed during the studies (in words); type: physicochemical; settings: for solubility in the aqueous phase (in words): HEPES-buffered aqueous phase pH 7.4 of log D7.4 determination, ligands and their Fe^3+ complexes
[4] = Protonation constants (log K) of ligands by UV-visible spectrophotometric titration vs. pH; type: physicochemical; settings: for pKa: value used as input for BBB score (Tables S1–S6); for log K LH2 / log K LH: Solvent H2O; for log K LH: I = 0.1 M (NaClO4), T = 25.0 °C
Method: For ligand 10a, protonation constants of the ligand were studied in both media while complexation studies were carried out only in the mixed solvent for solubility reasons.

[5] = cited from earlier work
[6] = Distribution coefficients (log D7.4), Shake Flask method, n-octanol / HEPES buffer pH 7.4; type: physicochemical; settings: free ligand, n-octanol / HEPES buffered aqueous phase pH 7.4
Method: The method is based on the principle that the solute's distribution is determined as a ratio of concentrations of the test compound in a solution mixture, consisting of two immiscible phases, namely n-octanol and an aqueous buffer (HEPES buffer, pH 7.4).

[7] = test system: SH-SY5Y neuroblastoma cells; design: method as in earlier work; settings: studied previously ref 27; cited from earlier work
[8] = DPPH radical scavenging assay; type: biochemical
[9] = design: method as in PMID 32078022; settings: cited from earlier work
[10] = cited from earlier work; remark: listed apart in the source
[11] = Fe^3+ complexation: stability constants (log β) and sequestering ability (pL0.5) by spectrophotometric titration; settings: solvent H2O; for log β FeL / log β FeL2 / log β FeL3: Fe^3+ complex; for pL0.5: towards Fe^3+ at pH 7.4, [Fe^3+] = 10^−9 M
[12] = value used as input for BBB score (Tables S7–S9), previously studied ligands ref 28

SMILES: Cc1nc(Cc2ccc(O)cc2)c(=O)n(O)c1C [Ligand 6d, 1-Hydroxy-3-(4-hydroxybenzyl)-5,6-dimethylpyrazin-2(1H)-one]
- % 6-OHDA Rescue (at 100 µM) [1]: 64%
- Antioxidant activity as TEAC ([2]; t = 1 min): 0.41 mM
- Antioxidant activity as TEAC ([2]; t = 3 min): 0.55 mM
- Antioxidant activity as TEAC ([2]; t = 6 min): 0.64 mM
- solubility in the aqueous phase (in words) [3]: low solubilities
- solubility in water (in words) [3]: very low solubility in water
- pKa [4]: 5.96

SMILES: O=c1cnccn1O [unsubstituted 1-hydroxypyrazin-2(1H)-one, 1-hydroxypyrazin-2(1H)-one]
- pKa ([5]; published previously ref 35): 4.4

SMILES: O=c1cncc(-c2ccccc2)n1O [Ligand 10a, 1-Hydroxy-6-phenylpyrazin-2(1H)-one]
- neuroprotection against 6-OHDA (in words) [1]: only marginal protection
- % 6-OHDA Rescue (at 100 µM) [1]: 63%
- time to complete reaction with ABTS radical cation [2]: ~3 min
- Antioxidant activity as TEAC ([2]; t = 1 min): 0.66 mM
- Antioxidant activity as TEAC ([2]; t = 3 min): 0.69 mM
- Antioxidant activity as TEAC ([2]; t = 6 min): 0.70 mM
- logD [6]: -1.2
- solubility in water (in words) [3]: very low solubility in water
- log K LH2 [4]: ∼−0.6
- log K LH [4]: 3.18(1)
- pKa [4]: 3.18

SMILES: O=C(O)c1cccn(O)c1=O [Ligand 3]
- pKa [5, 12]: 3.7
- % 6-OHDA Rescue (at 100 µM) [7]: 84%

SMILES: O=c1cncc(-c2ccc(O)cc2)n1O [Ligand 10d, 1-Hydroxy-6-(4-hydroxyphenyl)-pyrazin-2(1H)-one]
- neuroprotection against 6-OHDA (in words) [1]: partially prevented
- % 6-OHDA Rescue (at 100 µM) [1]: 76%
- pKa [4]: 4

SMILES: Cc1c(O)c(=O)ccn1C [DFP 1, deferiprone, reference compound]
- % 6-OHDA Rescue (at 100 µM) [7]: 117%
- time to complete reaction with ABTS radical cation [2]: ≤ 1 min
- Antioxidant activity as TEAC ([2]; t = 1 min): ∼0.7 mM
- Antioxidant activity as TEAC ([2]; t = 3 min): ∼0.7 mM
- Antioxidant activity as TEAC ([2]; t = 6 min): ∼0.7 mM
- EC50 ([8]; methanol, steady-state): 8 µg/mL
- EC50 ([8]; read-out: EC50): 58 µM

SMILES: O=c1cccc(CO)n1O [Ligand 2]
- log D7.4 of Fe^3+ complex ([9]; Fe^3+ complex of the ligand ref 28): −0.18
- log D7.4 ([9]; free ligand ref 28): −1.71
- pKa [5, 12]: 6.02
- % 6-OHDA Rescue (at 100 µM) [7]: 93%

SMILES: O=c1cncc(-c2ccc(F)cc2)n1O [Ligand 10c, 1-Hydroxy-6-(4-fluorophenyl)-pyrazin-2(1H)-one]
- melting point: 210.6 to 212.5 °C
- solubility in water (in words) [3]: low water solubilities

SMILES: CC(=O)N(O)CCCCCNC(=O)CCC(=O)N(O)CCCCCNC(=O)CCC(=O)N(O)CCCCCN [DFO, desferrioxamine, reference compound]
- log β ([10]; iron affinity ref 57a,b): 30.5

SMILES: Cc1cncc(=O)n1O [Ligand 11a, 1-Hydroxy-6-methylpyrazin-2(1H)-one]
- % 6-OHDA Rescue (at 100 µM) [1]: 60%
- Antioxidant activity as TEAC ([2]; t = 1 min): 0.02 mM
- Antioxidant activity as TEAC ([2]; t = 3 min): 0.03 mM
- Antioxidant activity as TEAC ([2]; t = 6 min): 0.05 mM
- logD [6]: -0.4
- log β FeL [11]: 7.83(1)
- log β FeL2 [11]: 14.28(2)
- log β FeL3 [11]: 20.19(4)
- pL0.5 [11]: 3.13
- log K LH2 [4]: 0.2(2)
- log K LH [4]: 3.98(5)
- pKa [4]: 3.98

SMILES: Cc1ncc(=O)n(O)c1C [Ligand 6a, 1-Hydroxy-5,6-dimethylpyrazin-2(1H)-one]
- log β3 ([10]; 1 : 3 Fe^3+ complex, different experimental conditions ref 35): 20.2
- pKa ([5]; published previously ref 35): 4.7
- neuroprotection against 6-OHDA (in words) [1]: fully rescued
- % 6-OHDA Rescue (at 100 µM) [1]: 100%
- cell viability restored [1]: ≥ 89%
- Antioxidant activity as TEAC ([2]; t = 1 min): 0.08 mM
- Antioxidant activity as TEAC ([2]; t = 3 min): 0.16 mM
- Antioxidant activity as TEAC ([2]; t = 6 min): 0.22 mM
- logD [6]: -1.73
- log β FeL [11]: 10.38(6)
- log β FeL2 [11]: 18.1(4)
- log β FeL3 [11]: 23.85(1)
- pL0.5 [11]: 4.36
- log K LH2 [4]: 0.04(2)
- log K LH [4]: 4.58(4)
- pKa [4]: 4.58

SMILES: NCCc1cc(O)c(O)cc1O [Ligand 6-OHDA, 6-hydroxydopamine, reference compound]
- decrease of cell viability ([1]; toxin only, 24 hours): approximately 50%

SMILES: COc1ccc(-c2cncc(=O)n2O)cc1 [Ligand 10b, 1-Hydroxy-6-(4-methoxyphenyl)-pyrazin-2(1H)-one]
- melting point: 176.8 to 179 °C
- solubility in water (in words) [3]: low water solubilities

SMILES: Cc1nc(Cc2ccccc2)c(=O)n(O)c1C [Ligand 6c, 1-Hydroxy-3-benzyl-5,6-dimethylpyrazin-2(1H)-one]
- neuroprotection against 6-OHDA (in words) [1]: partially prevented
- % 6-OHDA Rescue (at 100 µM) [1]: 89%
- cell viability restored [1]: ≥ 89%
- Antioxidant activity as TEAC ([2]; t = 1 min): 0.21 mM
- Antioxidant activity as TEAC ([2]; t = 3 min): 0.31 mM
- Antioxidant activity as TEAC ([2]; t = 6 min): 0.40 mM
- solubility in the aqueous phase (in words) [3]: low solubilities
- solubility in water (in words) [3]: very low solubility in water
- pKa [4]: 5.53
